Key:
Assay in all cases: relative viability (nuclei count vs DMSO), 5 days (fraction); higher = more cells survive
LCLC-103H = test system: LCLC-103H
In short: (§1)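 Relative viability divides the nuclei count in treated wells by that in vehicle wells. Lung cancer cell lines were seeded in 1536-well plates, dosed by pin tool the next day, and fixed and stained after 5 days in one step with final 0.05% Triton X-100, 1% formaldehyde and 1 ug/ml Hoechst. Dosing was a single drug or a fixed anchor-drug dose plus five library-drug doses (not always all listed) in √10 steps, and values are medians of duplicate plates imaged at 4×.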

NCI-H2023 = test system: NCI-H2023
In short: as §1

NCI-H647 = test system: NCI-H647
In short: as §1

NCI-H2087 = test system: NCI-H2087
In short: as §1

NCI-H1993 = test system: NCI-H1993
In short: as §1

NCI-H650 = test system: NCI-H650
In short: as §1

LOU-NH91 = test system: LOU-NH91
In short: as §1

EMC-BAC-2 = test system: EMC-BAC-2
In short: as §1

HCC-44 = test system: HCC-44
In short: as §1

NCI-H23 = test system: NCI-H23
In short: as §1

HARA = test system: HARA
In short: as §1

C=C1C(=O)O[C@@H](CCCCCCCC)[C@@H]1C(=O)O [C-75] + C[C@@H](Oc1cc(-c2cnn(C3CCNCC3)c2)cnc1N)c1c(Cl)ccc(F)c1Cl [Crizotinib] (partner 1 µM)
relative viability (LCLC-103H; first compound 0.08 µM): 1.08
relative viability (LCLC-103H; first compound 0.253 µM): 1.03
relative viability (LCLC-103H; first compound 0.8 µM): 1.05
relative viability (LCLC-103H; first compound 2.53 µM): 0.899
relative viability (LCLC-103H; first compound 8 µM): 0.978
relative viability (NCI-H2023; first compound 0.08 µM): 0.654
relative viability (NCI-H2023; first compound 0.253 µM): 0.767
relative viability (NCI-H2023; first compound 0.8 µM): 0.698
relative viability (NCI-H2023; first compound 2.53 µM): 0.444
relative viability (NCI-H2023; first compound 8 µM): 0.626
relative viability (NCI-H647; first compound 0.08 µM): 1.06
relative viability (NCI-H647; first compound 0.253 µM): 1.05
relative viability (NCI-H647; first compound 2.53 µM): 0.842
relative viability (NCI-H647; first compound 8 µM): 0.603
relative viability (NCI-H2087; first compound 0.08 µM): 0.942
relative viability (NCI-H2087; first compound 0.253 µM): 0.563
relative viability (NCI-H2087; first compound 0.8 µM): 0.837
relative viability (NCI-H2087; first compound 2.53 µM): 0.608
relative viability (NCI-H2087; first compound 8 µM): 0.711
relative viability (NCI-H1993; first compound 0.08 µM): 0.862
relative viability (NCI-H1993; first compound 0.253 µM): 0.991
relative viability (NCI-H1993; first compound 0.8 µM): 0.891
relative viability (NCI-H1993; first compound 2.53 µM): 0.701
relative viability (NCI-H1993; first compound 8 µM): 0.986
relative viability (NCI-H650; first compound 0.08 µM): 0.679
relative viability (NCI-H650; first compound 0.253 µM): 0.72
relative viability (NCI-H650; first compound 0.8 µM): 0.668
relative viability (NCI-H650; first compound 2.53 µM): 0.597
relative viability (NCI-H650; first compound 8 µM): 0.729
relative viability (LOU-NH91; first compound 0.08 µM): 0.743
relative viability (LOU-NH91; first compound 0.253 µM): 0.696
relative viability (LOU-NH91; first compound 0.8 µM): 0.726
relative viability (LOU-NH91; first compound 2.53 µM): 0.682
relative viability (LOU-NH91; first compound 8 µM): 0.742
relative viability (EMC-BAC-2; first compound 0.08 µM): 0.752
relative viability (EMC-BAC-2; first compound 0.253 µM): 0.731
relative viability (EMC-BAC-2; first compound 0.8 µM): 0.744
relative viability (EMC-BAC-2; first compound 2.53 µM): 0.692
relative viability (EMC-BAC-2; first compound 8 µM): 0.704
relative viability (HCC-44; first compound 0.08 µM): 0.787
relative viability (HCC-44; first compound 0.253 µM): 0.815
relative viability (HCC-44; first compound 0.8 µM): 0.795
relative viability (HCC-44; first compound 2.53 µM): 0.659
relative viability (HCC-44; first compound 8 µM): 0.719
relative viability (NCI-H23; first compound 0.08 µM): 0.509
relative viability (NCI-H23; first compound 0.253 µM): 0.579
relative viability (NCI-H23; first compound 0.8 µM): 0.522
relative viability (NCI-H23; first compound 2.53 µM): 0.507
relative viability (NCI-H23; first compound 8 µM): 0.534
relative viability (HARA; first compound 0.08 µM): 1
relative viability (HARA; first compound 0.253 µM): 1.15
relative viability (HARA; first compound 0.8 µM): 0.944
relative viability (HARA; first compound 8 µM): 1.05
